Two compounds from US20090169526A1, “BMP-6 ESTROGEN RESPONSIVE ELEMENT AND METHODS OF USE THEREOF” (Wyeth, priority 2004, published 2009) can be followed below.

Test [1] relates to hBMP-6 mRNA. In words: Real-time PCR of hBMP-6 mRNA with or without Actinomycin D. The format is cell-based, human. The note with it: for hBMP-6 mRNA expression: treated with E2, p<0.05. The source says:
In order to determine whether estrogen regulates hBMP-6 at the level of transcription, we conducted Real-time PCR assays measuring hBMP-6 mRNA expression in cells pulse-chase treated with or without Actinomycin D, which inhibits […] (FIG. 8).

Test [2] deals with T1, ERβ (Homo sapiens, UniProt Q92731). In words: ERE-tk-luciferase reporter in hMSCs infected with adeno-ERβ. The arrangement: expressed in transfected cells; host or cells: human mesenchymal stem cells (hMSCs), adenoviral transduction with Ad5-CMV-ERβ (long form; gift of Women Health Institute, Wyeth). The note with it: hMSCs infected with adeno-ERE-tk-luc, adeno-ERβ and adeno-LacZ; 10^−8 M E2, 24 hours; over vehicle control. The test is classed as cell-based.
T1 sequence (Q92731 whole entry): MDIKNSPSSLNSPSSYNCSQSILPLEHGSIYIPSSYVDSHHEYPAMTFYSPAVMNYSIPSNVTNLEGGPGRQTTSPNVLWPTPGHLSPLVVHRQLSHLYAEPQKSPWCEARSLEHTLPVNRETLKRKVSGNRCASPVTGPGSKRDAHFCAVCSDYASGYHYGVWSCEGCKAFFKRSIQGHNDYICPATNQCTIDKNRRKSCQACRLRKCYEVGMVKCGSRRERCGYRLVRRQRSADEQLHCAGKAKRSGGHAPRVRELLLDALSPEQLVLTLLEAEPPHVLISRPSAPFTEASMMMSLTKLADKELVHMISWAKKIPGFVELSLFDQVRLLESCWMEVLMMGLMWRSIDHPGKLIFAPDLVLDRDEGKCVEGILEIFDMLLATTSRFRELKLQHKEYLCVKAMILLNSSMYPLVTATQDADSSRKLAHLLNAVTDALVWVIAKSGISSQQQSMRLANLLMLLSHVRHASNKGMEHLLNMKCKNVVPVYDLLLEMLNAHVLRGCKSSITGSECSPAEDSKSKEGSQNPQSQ

The target in test [3] is T1, ERβ. In words: ERE-tk-Luc reporter in C3H10T1/2 cells co-transfected with ERβ. The test is classed as cell-based. The arrangement: expressed in transfected cells. The following applies: mouse C3H10T1/2 cells co-transfected with ERβ; 10^−8 M E2, 24 hours.
Test [4] deals with hBMP-6 promoter. In words: hBMP-6 promoter-Luc reporter in C3H10T1/2 cells. The test is classed as cell-based, mouse. The note with it: 10^−8 M E2, 24 hours.
In test [5] the test system is hBMP-6 mRNA. Description: RT-PCR of hBMP-6 mRNA in engineered hMSCs (qualitative). The format is cell-based, human. The note with it: E2 10^−7 M, 24 hours. The method, then: H MSCs were infected with 100 pfu/cell adeno-LacZ, adeno-ER-α or adeno-ER-β.
RNA was isolated utilizing the TRIzol Reagent (Life Technologies, USA), according to manufacturer's protocol. RT-PCR was performed as described previously (Zhou et al., 2001). Forward and reverse primers for human ERα were: 5′-[…]-3′ (SEQ ID NO:6) and 5′-[…]-3′ (SEQ ID NO:7), respectively, and were designed according to the human ERα sequence (Green et al., 1986). Forward and reverse primers for human ERβ were: 5′-[…]-3′ (SEQ ID NO:8), and 5′-[…]-3′ (SEQ ID NO:9), respectively, designed according to human ERβ sequence (Moore et al., 1998). Primers for the hBMP-6 (458 bp) (Rickard et al., 1998), and internal control RPL19 (190 bp) (Orly et al., 1994) sequences were as described previously.
PCR conditions used for hERα and hERβ amplification were as follows: 30 cycles at 94° C. for 1 minute, 60° C. for 1 minute and 72° C. for 2 minute. Conditions used for hBMP-6 reverse transcription and PCR amplification were: incubation with RT, followed by 30 cycles of 94° C. for 1 minute, 55° C. for 1 minute and 72° C. for 2 minute in an MJ MiniCycler (MJ Research, USA). RT-PCR products of hBMP-6 were cloned into pGEM-T Easy vector (A1360, Promega), which following sequencing confirmed that the RT-PCR product was the hBMP-6 sequence.

The subject of test [6] is hBMP-6 mRNA. Description: Real Time RT-PCR of hBMP-6 mRNA in engineered hMSCs. The note with it: 10^−7 M E2, 24 hours. The format is cell-based, human. The method, then:
(§1) hMSCs were infected in vitro at 80% confluence with Ad5-CMV-ERα, Ad5-CMV-ERβ and Ad5-CMV-LacZ at 100 pfu/cell, for 1 hour in serum-free DMEM after which DMEM supplemented with 10% FCS was added, as previously described (Bodine et al., 1997 and 1999). Efficiency of infection was estimated via β-gal activity determination, utilizing the Galacto-Light Chemiluminescent Reporter Assay System Kit (Tropix of PE Biosystems, USA). […] Five experiments, each in triplicate were conducted, standard error is represented.

Test [7] relates to estrogen receptors (Ers). The note with it: hMSCs with ERE-tk-luciferase construct and adeno-lacZ construct; five donors. The procedure:
as §1

Entries after “also recorded” stand apart in the source; their conditions may differ. *1 amine or outer side, *2 acyl side, *3 side chain or, on linkers, in order; H or OH if unused. Where a SMILES comes first, the peptide text is derived from it. Bridges are numbered along the chain shown (N, C = ends). Roman numbers before positions name the chains, in order. [ ]: non-standard residue; d: D form. Actinocin(9to1) = Cc1c2oc3c(C)ccc(C(=O)[*:1])c3nc-2c(C(=O)[*:2])c(N)c1=O; NMeV = CN[C@H](C(=O)O)C(C)C; Sar = CNCC(=O)O

On to `Cc1c2oc3c(C)ccc(C(=O)N[C@@H]4C(=O)N[C@H](C(C)C)C(=O)N5CCC[C@H]5C(=O)N(C)CC(=O)N(C)[C@@H](C(C)C)C(=O)O[C@@H]4C)c3nc-2c(C(=O)N[C@@H]2C(=O)N[C@H](C(C)C)C(=O)N3CCC[C@H]3C(=O)N(C)CC(=O)N(C)[C@@H](C(C)C)C(=O)O[C@@H]2C)c(N)c1=O` [Actinomycin D] (I: T[dV]P[Sar][NMeV] / II: T[dV]P[Sar][NMeV]; ester I:1-I:C, II:1-II:C; linker I:N-II:N via Actinocin(9to1)), for which the “effect of Actinomycin D on up-regulation of hBMP-6 mRNA by E2” value in test [1] (hMSCs engineered with ERα or ERβ, pulse-chase treated) was “no statistical difference; also recorded: does not block”.

Regarding `C[C@]12CC[C@@H]3c4ccc(O)cc4CC[C@H]3[C@@H]1CC[C@@H]2O` [E2, 17β-estradiol], the “increase in luciferase activity” value in test [2] is recorded as 6 fold. Besides, the “hBMP-6 mRNA expression” value in test [1] (cells transfected with ERα) and in test [1] (cells transfected with ERβ) was “significantly increased” throughout. Besides, in test [3], the ERE-tk-Luc luminescence result is given as “significant luminescence”. Further, the “hBMP-6 promoter-Luc luminescence” value in test [4] (mouse C3H10T1/2 cells co-transfected with ERα) and in test [4] (mouse C3H10T1/2 cells co-transfected with ERβ) was “did not result in enhanced luminescence over background levels” in each case. Also, the “hBMP-6 mRNA detection by RT-PCR” value in test [5] (hMSCs transduced with adeno-ERα 100 pfu/cell) was “qualitatively detectable levels”; in test [5] (hMSCs transduced with adeno-ERβ 100 pfu/cell) it was “qualitatively detectable levels”; in test [5] (hMSCs transduced with adeno-LacZ 100 pfu/cell), “did not”. In addition, the “increase in hBMP-6 mRNA expression” value in test [6] (hMSCs infected with Adeno-ERα 100 pfu/cell) is listed as 3.2 fold; in test [6] (hMSCs infected with Adeno-ERβ 100 pfu/cell) it was 2.0 fold. Besides, the “stimulation of hBMP-6 mRNA expression” value in test [6] (hMSCs infected with Adeno-LacZ) was “not”. Moreover, in test [7], the “luciferase activity following E2 treatment” value is recorded as “failed to produce luciferase activity”.
